Reference: DBAASP
In brackets after ≈: the same amount, converted by molar mass. Blank lines part the entries; values can stand above or below the compound they belong to.

Tests used:
Experiment in all cases: ≥ marks a high value that may be exact or a test limit, other limits are often not marked, values filed in µg/mL are converted to µM
[1] = test system: Salmonella enterica subsp. enterica serovar Pullorum CVCC 3533
[2] = test system: Candida albicans ATCC 90029
[3] = test system: Salmonella enterica subsp. enterica serovar Pullorum
[4] = test system: Escherichia coli
[5] = test system: Staphylococcus aureus ATCC 29213
[6] = test system: Staphylococcus aureus
[7] = test system: Escherichia coli ATCC 25922
[8] = test system: Staphylococcus epidermidis
[9] = test system: Escherichia coli K12 MG1655
[10] = test system: Escherichia coli UTI89
[11] = test system: Salmonella enterica subsp. enterica serovar Typhimurium ATCC 14028
[12] = test system: Enterococcus faecalis ATCC 4028
[13] = test system: Pseudomonas aeruginosa ATCC 27853
[14] = test system: Enterobacter cloacae ATCC 13047
[15] = test system: Staphylococcus epidermidis ATCC 12228
[16] = test system: Candida albicans ATCC 90028
[17] = test system: Candida glabrata ATCC 90030
[18] = test system: Candida krusei ATCC 6258
[19] = test system: Escherichia coli ATCC 11775
[20] = test system: Candida albicans ATCC 14053
[21] = test system: Micrococcus luteus ATCC 49732
[22] = test system: Staphylococcus aureus ATCC 12600

- MIC [1]: 4.54 µM (≈ 6.25 µg/mL)
- MIC [2]: ≥ 36.3 µM
- MIC [3]: 4.54 µM (≈ 6.25 µg/mL)
- MIC [4]: 18.2 µM (≈ 25 µg/mL)
- MIC [5]: 18.2 µM (≈ 25 µg/mL)
- MIC [6]: 18.2 µM (≈ 25 µg/mL)
- MIC [7]: 9.08 µM (≈ 12.5 µg/mL)
SMILES: CC(C)C[C@H](NC(=O)[C@H](CCCCN)NC(=O)[C@H](Cc1cnc[nH]1)NC(=O)[C@H](CCCCN)NC(=O)[C@H](CC(C)C)NC(=O)[C@H](CC(C)C)NC(=O)[C@@H](N)CCCCN)C(=O)N[C@@H](CC(C)C)C(=O)N[C@H](C(=O)N[C@H](C(=O)N[C@@H](CC(C)C)C(=O)N[C@@H](C)C(=O)O)[C@@H](C)O)C(C)C [KLLKHKLLVTLA]

- MIC [8]: ≥ 50 µM
- MIC [9]: 7 µM (≈ 13.1 µg/mL)
- MIC [10]: 6.25 µM (≈ 11.7 µg/mL)
- MIC [11]: 29 µM (≈ 54.4 µg/mL)
SMILES: CC[C@H](C)[C@H](NC(=O)[C@H](CCCN=C(N)N)NC(=O)[C@H](CCC(N)=O)NC(=O)[C@H](Cc1c[nH]c2ccccc12)NC(=O)[C@@H](NC(=O)[C@H](CCCCN)NC(=O)[C@@H](N)CCCCN)[C@@H](C)CC)C(=O)N[C@@H](CCCCN)C(=O)N[C@@H](CC(N)=O)C(=O)N[C@@H](Cc1ccccc1)C(=O)N[C@@H](Cc1ccccc1)C(=O)N[C@@H](CCC(N)=O)C(=O)N[C@@H](CCCCN)C(=O)N[C@@H](CC(C)C)C(=O)O [KKIWQRIKNFFQKL]

- MIC [12]: 4.7 µM (≈ 9.3 µg/mL)
- MIC [13]: 4.7 µM (≈ 9.3 µg/mL)
- MIC [14]: 18.8 µM (≈ 37.2 µg/mL)
- MIC [15]: 2.3 µM (≈ 4.55 µg/mL)
- MIC [16]: 9.4 µM (≈ 18.6 µg/mL)
- MIC [17]: 9.4 µM (≈ 18.6 µg/mL)
- MIC [5]: 1.2 µM (≈ 2.37 µg/mL)
- MIC [18]: 9.4 µM (≈ 18.6 µg/mL)
- MIC [7]: 2.3 µM (≈ 4.55 µg/mL)
SMILES: CC[C@H](C)[C@H](NC(=O)[C@H](CC(C)C)NC(=O)[C@H](CCCCN)NC(=O)[C@H](CCCCN)NC(=O)[C@@H](NC(=O)[C@H](CC(C)C)NC(=O)[C@H](CO)NC(=O)[C@@H]1CCCN1C(=O)[C@@H](NC(=O)[C@H](CC(C)C)NC(=O)[C@H](CO)NC(=O)[C@H](Cc1ccccc1)NC(=O)[C@@H](N)Cc1ccccc1)[C@@H](C)CC)C(C)C)C(=O)N[C@@H](CCCCN)C(=O)N[C@@H](C)C(=O)N[C@@H](Cc1ccccc1)C(=O)N[C@@H](CCCCN)C(N)=O [FFSLIPSLVKKLIKAFK]

- MIC [19]: ≥ 128 µM
- MIC [20]: ≥ 36 µM
- MIC [21]: ≥ 36 µM
- MIC [22]: ≥ 967 µM
SMILES: C[C@H](NC(=O)[C@H](C)NC(=O)[C@@H](NC(=O)CNC(=O)[C@@H]1CCCN1)[C@@H](C)O)C(=O)N[C@@H](Cc1ccccc1)C(=O)N[C@@H](CCCCN)C(=O)O [PGTAAFK]
